Source: US12559474B2, “Triazine derivatives having virus replication inhibitory activity and pharmaceutical composition comprising the same” (priority 2021, dated 2026)
Several values for one entry are separate records, joined by “and”; a condition that tells them apart may be missing. Equal values may be shown once.

Molecular target: SARS-CoV-2 3CL protease (Severe acute respiratory syndrome coronavirus 2, UniProt P0DTD1)
Experiment: biochemical
Conditions: IC50

Structure (SMILES) | IC50
Cc1cn2cc(Nc3nc(=O)n(Cc4ccc[nH]c4=O)c(=O)n3Cc3cc(F)c(F)c(F)c3)c(Cl)cc2n1 [Compound I-0441] | < 100 nM
CC(=O)NCCn1cc2cc(Nc3nc(=O)n(Cc4cc(Cl)c[nH]c4=O)c(=O)n3Cc3cc(F)c(F)c(F)c3)c(Cl)cc2n1 [Compound I-0453] | < 100 nM
CCc1nc2cc(Cl)c(Nc3nc(=O)n(Cc4ccc[nH]c4=O)c(=O)n3Cc3cc(F)c(F)c(F)c3)cc2n1C [Compound I-0399] | < 100 nM
O=c1[nH]cccc1Cn1c(=O)nc(Nc2ccc(-c3cc[nH]n3)cc2)n(Cc2cc(F)c(F)c(F)c2)c1=O [Compound I-0154] | 1300 nM and 1000 to 10000 nM
CNC(=O)c1c[nH]c(=O)c(Cn2c(=O)nc(Nc3ccc(OC)cc3)n(Cc3cc(F)c(F)c(F)c3)c2=O)c1 [Compound I-0087] | < 100 nM
CNC(=O)c1cccc(C2(Nc3nc(=O)n(Cc4ccc[nH]c4=O)c(=O)n3Cc3cc(F)c(F)c(F)c3)CCC2)c1 [II-0481] | 100 nM
C[C@H](Nc1nc(=O)n(Cc2ccc[nH]c2=O)c(=O)n1Cc1cc(F)c(F)c(F)c1)c1ccccc1 [II-0230] | 550 nM
CCNc1nc2cc(Cl)c(Nc3nc(=O)n(Cc4ncn(C)n4)c(=O)n3Cc3cc(Cl)c(F)cn3)cc2s1 [II-0340] | < 100 nM
Cn1cnc(Cn2c(=O)nc(Nc3cc4cn(C)nc4cc3Cl)n(CC3CCC(F)(F)CC3)c2=O)n1 [II-0607] | 100 to 1000 nM
Cn1cnc(Cn2c(=O)nc(Nc3cc4cn(CC(=O)N5CCC5)nc4cc3Cl)n(Cc3cc(Cl)c(F)cc3F)c2=O)n1 [II-0149] | < 100 nM
Cc1cncc(-n2c(=O)nc(Nc3ccc(N=S4(=O)CCCC4)cc3F)n(Cc3cc(Cl)ccc3C)c2=O)c1 [II-0616] | < 100 nM
COC(=O)Cn1cnc(Cn2c(=O)nc(Nc3ccc(OC)cc3)n(Cc3cc(F)c(F)c(F)c3)c2=O)c1 [Compound I-0414] | 250 nM and 100 to 1000 nM
Cn1cnc(Cn2c(=O)nc(Nc3cc4c(=O)n(C)cnc4cc3Cl)n(Cc3cc(F)c(F)cc3F)c2=O)n1 [II-0013] | < 100 nM
Cn1cnc(Cn2c(=O)nc(Nc3cc4cn(CC(F)F)nc4cc3Cl)n(Cc3ccc(F)c(C#N)c3)c2=O)n1 [II-0549] | < 100 nM
COCCn1c(C)nc2cc(Cl)c(Nc3nc(=O)n(Cc4ccc[nH]c4=O)c(=O)n3Cc3cc(F)c(F)c(F)c3)cc21 [Compound I-0443] | < 100 nM
Cc1cncc(-n2c(=O)nc(Nc3ccc(N=S4(=O)CCCC4)cc3C(F)(F)F)n(Cc3cc(Cl)ccc3C)c2=O)c1 [II-0614] | < 100 nM
O=c1[nH]cccc1Cn1c(=O)nc(NC23CC(Nc4nc(Cl)cc(Cl)n4)(C2)C3)n(Cc2cc(F)c(F)c(F)c2)c1=O [II-0622] | < 100 nM
Cn1cnc(Cn2c(=O)nc(Nc3cc4cn(CC(=O)O)nc4cc3Cl)n(Cc3cc(F)c(F)c(Cl)c3)c2=O)n1 [II-0321] | < 100 nM
Cn1cc2cc(Nc3nc(=O)n(Cc4cc(C(=O)NC5CC5)c[nH]c4=O)c(=O)n3Cc3cc(F)c(F)c(F)c3)c(Cl)cc2n1 [Compound I-0333] | < 100 nM
Cc1cncc(-n2c(=O)nc(Nc3cc4sc(NS(C)(=O)=O)nc4cc3Cl)n(Cc3ccc(F)c(C#N)c3)c2=O)c1 [II-0427] | < 100 nM
CC(=O)Nc1snc2cc(Cl)c(Nc3nc(=O)n(Cc4ncn(C)n4)c(=O)n3Cc3cc(Cl)c(F)cc3F)cc12 [II-0610] | < 100 nM
CCOc1c(F)cc(F)cc1Cn1c(Nc2cc3cn(C)nc3cc2Cl)nc(=O)n(Cc2ncn(C)n2)c1=O [II-0638] | < 100 nM
Cn1cc2cc(Nc3nc(=O)n(Cc4ccc[nH]c4=O)c(=O)n3Cc3cc(F)cc(C#N)c3)c(Cl)cc2n1 [Compound I-0268] | < 100 nM

Structure (SMILES) | IC50
COc1ccc(Nc2nc(=O)n(Cc3cc(C)[nH]n3)c(=O)n2Cc2cc(F)c(F)c(F)c2)cc1 [Compound I-0340] | 840 nM and 100 to 1000 nM
COc1ccc(Nc2nc(=O)n(Cc3cc(C)on3)c(=O)n2Cc2cc(F)c(F)c(F)c2)cc1 [Compound I-0334] | 870 nM and 100 to 1000 nM
O=c1[nH]cccc1Cn1c(=O)nc(Nc2ccc(O)cc2)n(Cc2cc(F)c(F)c(F)c2)c1=O [Compound I-0027] | < 100 nM
Cc1cc(C)nc(NC23CC(Nc4nc(=O)n(Cc5ccc[nH]c5=O)c(=O)n4Cc4cc(F)c(F)c(F)c4)(C2)C3)n1 [II-0627] | < 100 nM
CNc1nc2cc(Cl)c(Nc3nc(=O)n(Cc4ncn(C)n4)c(=O)n3Cc3ccc(F)c(C#N)c3)cc2s1 [II-0603] | < 100 nM
CC(=O)N1CC(n2cc3cc(Nc4nc(=O)n(-c5cncc6ccccc56)c(=O)n4Cc4cc(F)c(F)c(F)c4)c(Cl)cc3n2)C1 [Compound I-0289] | < 100 nM
Cc1cc(Oc2ccc(Nc3nc(=O)n(Cc4ccc[nH]c4=O)c(=O)n3Cc3cc(F)c(F)c(F)c3)cc2)no1 [Compound I-0048] | 440 nM and 100 to 1000 nM
O=c1[nH]cccc1Cn1c(=O)nc(Nc2ccc(OCCO)cc2Cl)n(Cc2cc(F)c(F)c(F)c2)c1=O [Compound I-0371] | < 100 nM
Cn1cnc(Cn2c(=O)nc(Nc3cc4cn(C)nc4cc3Cl)n(Cc3cccc4cccnc34)c2=O)n1 [II-0224] | 1900 nM
Cn1cnc(Cn2c(=O)nc(Nc3cc4cn(CC(=O)N5CCCC5)nc4cc3Cl)n(Cc3cc(Cl)c(F)cc3F)c2=O)n1 [II-0138] | < 100 nM
CNC(=O)Cn1c(=O)nc(Nc2cc3sc(C)nc3cc2C)n(Cc2cc(F)c(F)c(F)c2)c1=O [Compound I-0479] | 1000 to 10000 nM
COc1ccc(Nc2nc(=O)n(CC3(C)COC3)c(=O)n2Cc2cc(F)c(F)c(F)c2)cc1 [II-0274] | 3000 nM
Cn1cnc(Cn2c(=O)nc(Nc3cc4c(cc3Cl)nc3n4CCN3)n(Cc3cc(F)c(F)c(Cl)c3)c2=O)n1 [II-0411] | < 100 nM
COc1cc(OC)nc(NC23CC(Nc4nc(=O)n(CC5=CC=CNC5C)c(=O)n4Cc4cc(F)c(F)c(F)c4)(C2)C3)n1 (stereo not shown) [II-0626] | < 100 nM
Cn1cnc(Cn2c(=O)nc(Nc3cc4cn(CCS(C)(=O)=O)nc4cc3Cl)n(Cc3cc(Cl)c(F)cc3F)c2=O)n1 [II-0033] | < 100 nM
Cc1cncc(-n2c(=O)nc(Nc3cc4cn(C)nc4cc3Cl)n(C[C@@H]3CCCN3C(=O)CNC(=O)C(F)(F)F)c2=O)c1 [II-0086] | 3400 nM
Cn1cnc(Cn2c(=O)nc(Nc3cc4cn(CC(=O)N5CCOCC5)nc4cc3Cl)n(Cc3cc(F)c(F)c(Cl)c3)c2=O)n1 [II-0139] | < 100 nM
Cc1cncc(-n2c(=O)nc(Nc3cc4c(=O)n(C)cnc4cc3F)n(Cc3ccc(F)c(C#N)c3)c2=O)c1 [II-0480] | < 100 nM
CS(=O)(=O)CCCn1cc2cc(Nc3nc(=O)n(Cc4ccc[nH]c4=O)c(=O)n3Cc3cc(F)c(F)c(F)c3)c(Cl)cc2n1 [Compound I-0287] | < 100 nM
Cc1cncc(-n2c(=O)nc(Nc3cc4cn(C)nc4cc3Cl)n(Cc3nc(Cl)c(Cl)n3C)c2=O)c1 [II-0021] | 3600 nM
CNc1nc2cc(F)c(Nc3nc(=O)n(-c4cncc(C)c4)c(=O)n3Cc3cc(F)c(F)c(Cl)c3)cc2s1 [II-0293] | < 100 nM
O=C1OCCN1c1ccc(Nc2nc(=O)n(Cc3ccc[nH]c3=O)c(=O)n2Cc2cc(F)c(F)c(F)c2)c(Cl)c1 [Compound I-0397] | 730 nM and 100 to 1000 nM
Cn1cnc(Cn2c(=O)nc(Nc3cc4cn(CC(=O)N5CCCCC5)nc4cc3Cl)n(Cc3cc(F)c(F)c(Cl)c3)c2=O)n1 [II-0142] | < 100 nM

Structure (SMILES) | IC50
CN(C)C(=O)c1cnc2[nH]c(=O)c(Cn3c(=O)nc(Nc4ccc5c(c4)CCO5)n(Cc4cc(F)c(F)c(F)c4)c3=O)cc2c1 [II-0315] | < 100 nM
Cn1cc(Nc2nc(=O)n(Cc3ccc[nH]c3=O)c(=O)n2Cc2cc(F)c(F)c(F)c2)c(Cl)cc1=O [Compound I-0244] | < 100 nM
Cn1cc2cc(Nc3nc(=O)n(Cc4ccc[nH]c4=O)c(=O)n3Cc3cc(F)c(F)c(F)c3)ccc2n1 [Compound I-0143] | < 100 nM
CC(=O)Nc1nc2cc(F)c(Nc3nc(=O)n(Cc4ncn(C)n4)c(=O)n3Cc3cc(F)c(F)c(Cl)c3)cc2s1 [II-0012] | < 100 nM
CCn1cc2cc(Nc3nc(=O)n(Cc4ncn(C)n4)c(=O)n3Cc3cc(Cl)c(F)cn3)c(Cl)cc2n1 [II-0268] | < 100 nM
O=c1[nH]cccc1Cn1c(=O)nc(NC23CC(Nc4ncc(C(F)(F)F)cn4)(C2)C3)n(Cc2cc(F)c(F)c(F)c2)c1=O [II-0456] | < 100 nM
COc1ccc(Nc2nc(=O)n(Cc3nc(Br)c[nH]c3=O)c(=O)n2Cc2cc(F)c(F)c(F)c2)cc1 [Compound I-0106] | 1900 nM and 1000 to 10000 nM
Cn1cnc(Cn2c(=O)nc(Nc3cc4cn(C)nc4cc3Cl)n(Cc3c4ccccc4cc4ccccc34)c2=O)n1 [II-0225] | 2700 nM
Cn1cnc(Cn2c(=O)cc(Nc3cc4cn(CC(F)F)nc4cc3Cl)n(Cc3ccc(F)c(C#N)c3)c2=O)n1 [II-0432] | < 100 nM
CN(C)CCn1cc2cc(Nc3nc(=O)n(Cc4ccc[nH]c4=O)c(=O)n3Cc3cc(F)c(F)c(F)c3)c(Cl)cc2n1 [Compound I-0427] | < 100 nM
CNC(=O)CCn1c(=O)nc(Nc2cc3cn(C)nc3cc2Cl)n(Cc2cc(F)c(F)cc2F)c1=O [II-0643] | 1000 nM
COc1ccc(Nc2nc(=O)n(Cc3cc(C(=O)NCc4ccn(C)n4)c[nH]c3=O)c(=O)n2Cc2cc(F)c(F)c(F)c2)cc1 [II-0325] | < 100 nM
CNC(=O)Cn1cc2cc(Nc3nc(=O)n(Cc4ncn(C)n4)c(=O)n3Cc3cc(F)c(F)c(Cl)c3)c(Cl)cc2n1 [II-0145] | < 100 nM
CNC(=O)c1ccc(Nc2nc(=O)n(Cc3ccc[nH]c3=O)c(=O)n2Cc2cc(F)c(F)c(F)c2)cc1 [Compound I-0149] | 3500 nM and 1000 to 10000 nM
O=c1[nH]cccc1Cn1c(=O)nc(NC2CCc3[nH]ncc3C2)n(Cc2cc(F)c(F)c(F)c2)c1=O (racemic) [Compound I-0208] | 230 nM and 100 to 1000 nM
Cc1nc2cc(Cl)c(Nc3nc(=O)n(Cc4ccc[nH]c4=O)c(=O)n3Cc3cc(F)c(F)c(C#N)c3)cc2n1C [Compound I-0010] | < 100 nM
O=c1[nH]cccc1Cn1c(=O)nc(Nc2ccc(-c3cocn3)cc2Cl)n(Cc2cc(F)c(F)c(F)c2)c1=O [Compound I-0396] | 3100 nM and 1000 to 10000 nM
Cn1cc2cc(Nc3nc(=O)n(-c4cnc5ccccn45)c(=O)n3Cc3ccc(F)c(C#N)c3)c(Cl)cc2n1 [II-0488] | < 100 nM
COc1cc(N=S(C)(C)=O)ccc1Nc1nc(=O)n(-c2cncc(C)c2)c(=O)n1Cc1cc(Cl)ccc1C [II-0633] | < 100 nM
COc1ccc(Nc2nc(=O)n(Cc3cc(C(N)=O)c[nH]c3=O)c(=O)n2Cc2cc(F)c(F)c(F)c2)cc1 [Compound I-0088] | < 100 nM
COc1ccc(Nc2nc(=O)n(Cc3ccc[nH]c3=O)c(=O)n2C2CCc3cc(F)c(F)cc32)cc1 (racemic) [Compound I-0258] | 3500 nM and 1000 to 10000 nM
